The values that follow come from PubChem BioAssay (NCI).

Test systems include DU-145 prostate; NCI-H226 lung; HCT-15 colon; HL-60(TB) leukemia; SF-295 CNS; HOP-92 NSCLC; CAKI-1 renal; HCC-2998 colon; HCT-116 colon; MALME-3M melanoma.
Common to all, as to assay: growth of human tumour cells (NCI), 48 h

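Assay format: 96-well plates, 48-hour exposure. GI50 marks 50% less growth. TGI is the concentration that stops growth completely.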

In the case of `O=C1c2cccnc2C(=O)c2c1c(C(=O)OCCc1ccccn1)c1ccccn21`, the GI50 in the assay with DU-145 prostate is 0.0296 µM; with NCI-H226 lung it was 0.0277 µM; with HCT-15 colon it was 0.0145 µM; in the assay with HL-60(TB) leukemia, 0.783 µM; in the assay with SF-295 CNS, 0.342 µM; in the assay with HOP-92 NSCLC, 0.121 µM. The GI50 in the assay on CAKI-1 renal was 0.039 µM; in the assay on HCC-2998 colon it was 0.12 µM; in the assay on HCT-116 colon, 0.019 µM; in the assay with MALME-3M melanoma, 0.0613 µM. Moreover, the TGI in the assay with DU-145 prostate came out at 1.22 µM; with NCI-H226 lung, 0.472 µM; in the assay on HCT-15 colon, 1.46 µM; in the assay with HL-60(TB) leukemia, 5.93 µM; in the assay on SF-295 CNS, 1.77 µM; in the assay with HOP-92 NSCLC, 5.58 µM. Further, the TGI came out at 11.3 µM in the assay on CAKI-1 renal, 2.08 µM with HCC-2998 colon, 0.318 µM in the assay on HCT-116 colon and 0.924 µM in the assay with MALME-3M melanoma.
In the case of `NCCCNc1nc2ccc(Cl)cc2c2c(=O)c3cc(F)ccc3sc12`, the GI50 in the assay on DU-145 prostate is 1.97 µM; in the assay on NCI-H226 lung, 8.58 µM; in the assay on HCT-15 colon it was 1.71 µM; with HL-60(TB) leukemia it was 3.13 µM; in the assay on SF-295 CNS, 12 µM; with HOP-92 NSCLC it was 1.58 µM. Further, the GI50 in the assay on CAKI-1 renal is 6.39 µM; in the assay on HCC-2998 colon it was 1.89 µM; in the assay with HCT-116 colon it was 1.72 µM; with MALME-3M melanoma, 6.91 µM. Moreover, the TGI in the assay with DU-145 prostate worked out at 4.05 µM; in the assay on NCI-H226 lung, 25.1 µM; in the assay with HCT-15 colon, 3.48 µM; in the assay on HL-60(TB) leukemia it was 10.7 µM; in the assay on SF-295 CNS it was 26.5 µM; in the assay with HOP-92 NSCLC, 6.51 µM. For the same molecule, the TGI stood at 20.2 µM in the assay on CAKI-1 renal, 4.38 µM with HCC-2998 colon, 3.12 µM with HCT-116 colon and 23.2 µM in the assay on MALME-3M melanoma.
For the molecule `Oc1ccc(Cc2ccc(O)c(C3CC(c4ccc(Cl)cc4)=NN3)c2)cc1C1CC(c2ccc(Cl)cc2)=NN1` (centres undefined), the GI50 with DU-145 prostate was 3.22 µM; in the assay with NCI-H226 lung it was 4.29 µM; in the assay on HCT-15 colon, 2.26 µM; in the assay on HL-60(TB) leukemia, 2.73 µM; in the assay on SF-295 CNS it was 2.39 µM; in the assay with HOP-92 NSCLC it was 3.39 µM. In addition, the GI50 was 3.19 µM in the assay on CAKI-1 renal, 3.71 µM in the assay with HCC-2998 colon, 1.72 µM with HCT-116 colon and 5.03 µM in the assay on MALME-3M melanoma. Also, the TGI with DU-145 prostate was > 100 µM; in the assay with NCI-H226 lung, > 44.3 µM; in the assay with HCT-15 colon it was > 35.8 µM; in the assay on HL-60(TB) leukemia it was > 100 µM; with SF-295 CNS it was > 42.9 µM; in the assay on HOP-92 NSCLC it was 20.9 µM. Also, the TGI with CAKI-1 renal was > 58.4 µM; in the assay on HCC-2998 colon, > 30.8 µM; with HCT-116 colon, 5.59 µM; with MALME-3M melanoma, > 100 µM.
As for `CCCCCCc1cc2cc(-c3csc(/C=C/c4ccccc4)n3)c(=O)oc2cc1O`, the GI50 in the assay on DU-145 prostate was 12.8 µM; in the assay with NCI-H226 lung, 15.2 µM; in the assay on HCT-15 colon, 5.53 µM; in the assay with HL-60(TB) leukemia, 4.79 µM; with SF-295 CNS it was 13.1 µM; in the assay with HOP-92 NSCLC it was 4.32 µM. For the same molecule, the GI50 with CAKI-1 renal is 19 µM; in the assay with HCC-2998 colon, 6.41 µM; with HCT-116 colon, 3.39 µM; in the assay with MALME-3M melanoma, 14.7 µM. In addition, the TGI in the assay with DU-145 prostate was 44.7 µM; in the assay with NCI-H226 lung, 33.4 µM; in the assay with HCT-15 colon, > 100 µM; in the assay on HL-60(TB) leukemia it was 30.4 µM; with SF-295 CNS it was 27.2 µM; with HOP-92 NSCLC, 17.7 µM. Also, the TGI in the assay with CAKI-1 renal was 48.5 µM; in the assay on HCC-2998 colon it was 29.3 µM; in the assay with HCT-116 colon, 12.1 µM; in the assay on MALME-3M melanoma, 34.6 µM.
`COc1ccc(C2CC(c3ccc4ccccc4c3)=NN2c2nc(O)c(C3=c4cc(OC)ccc4=NC3=O)s2)cc1` (centres undefined): the GI50 with DU-145 prostate was 0.0449 µM; with NCI-H226 lung, 0.0581 µM; in the assay with HCT-15 colon, 0.0973 µM; in the assay with HL-60(TB) leukemia, > 57.9 µM; with SF-295 CNS it was 0.0608 µM; with HOP-92 NSCLC, 0.131 µM. Further, the GI50 was 0.349 µM in the assay on CAKI-1 renal, 0.0762 µM in the assay with HCC-2998 colon, 0.243 µM with HCT-116 colon and 0.0243 µM with MALME-3M melanoma. Further, the TGI in the assay with DU-145 prostate was 14.1 µM; in the assay with NCI-H226 lung, 0.248 µM; with HCT-15 colon it was 1.09 µM; in the assay on HL-60(TB) leukemia, > 100 µM; in the assay on SF-295 CNS it was 0.165 µM; in the assay with HOP-92 NSCLC, 0.358 µM. In addition, the TGI in the assay with HCC-2998 colon was determined as 0.265 µM; with HCT-116 colon it was 0.66 µM; in the assay on MALME-3M melanoma it was 0.0655 µM.
On to `CCOc1cc(/C=C/C(=O)C(C(=O)/C=C/c2ccc(OC(=O)CNc3nnc(C)s3)c(OCC)c2)C(=O)CNc2nnc(C)s2)ccc1OC(=O)CNc1nnc(C)s1`, for which the GI50 was 1.72 µM with DU-145 prostate; 1.92 µM in the assay on NCI-H226 lung; 2.16 µM with HCT-15 colon; 0.554 µM in the assay with HL-60(TB) leukemia; 3.08 µM in the assay with SF-295 CNS; 2.13 µM in the assay with HOP-92 NSCLC. Further, the GI50 in the assay on CAKI-1 renal is 2.8 µM; with HCC-2998 colon, 1.69 µM; in the assay with HCT-116 colon, 0.952 µM; in the assay on MALME-3M melanoma, 2.36 µM. Besides, the TGI in the assay on DU-145 prostate amounted to 4.18 µM; in the assay on NCI-H226 lung, 4.54 µM; in the assay on HCT-15 colon it was 5.85 µM; in the assay on HL-60(TB) leukemia, 3.47 µM; with SF-295 CNS, 10.7 µM; in the assay with HOP-92 NSCLC, 6.6 µM. For the same molecule, the TGI with CAKI-1 renal is > 29 µM; in the assay on HCC-2998 colon, 3.33 µM; with HCT-116 colon it was 4.42 µM; in the assay on MALME-3M melanoma it was 7.09 µM.
